Data from patent US20180353445A1, “METHODS AND COMPOSITIONS RELATING TO PROTEASOME INHIBITOR RESISTANCE” (Whitehead Institute for Biomedical Research, priority 2017, published 2018).

Experiments:
T47D cells = test: Translation and degradation assays (3H-phenylalanine); assay type: cell-based, human; conditions: control cells, 20-hour treatment
Description: FIGS. 4A-4F: Transient induction of PSMD2 shRNA is sufficient to promote resistance to proteasome inhibition. (FIG. 4A) Schematic representation of the experimental design. (FIG. 4B) T471) cells harboring a doxycycline-inducible PSMD2 shRNA were grown in the presence of in/nil doxycycline for 48 hours. Cells were then collected, washed and plated in the absence of doxycycline for 24 hours prior to exposure to increasing concentrations of bortezomib. Relative cell numbers were measured 3 days later. […] The proteasome complex levels and activity of the 20S proteasome were assessed by native gel electrophoresis. Loading controls were analyzed by immunoblot for PSMD2 and tubulin following SDS-PAGE. […] (FIG. 4E) The rate of degradation was analyzed in cells with reduced levels of PSMD2 (green bars) versus control (red bars) in the presence or absence of 10 nM bortezomib (treatment for 20 hours) by monitoring the release of H3-Phe in pre-labeled cells. (FIG. 4F) Rate of total protein synthesis was determined in cells with reduced levels of PSMD2 (green bars) versus control (red bars) in the presence or absence of 10 nM bortezomib (treatment for 20 hours) by measuring the rate of incorporation of 3H-phenylalanine for 1 hour. **p<0.01***p<0.001 […]

20S proteasome = 20S proteasome (Homo sapiens, UniProt P28072+P28074); test: Native gel analysis of proteasomal complexes, Suc-LLVY-AMC substrate overlay; assay type: biochemical; conditions: control cells, 12 nM, 24 hours
From the text: FIGS. 2A-2F: Reducing expression of 19S subunits increases the levels of active 20S proteasomes and protects cancer cells from proteasome (FIG. 2A) HepG2 cells were infected with 80 shRNAs targeting 20 different subunits of the proteasome and 10 control shRNAs. Infected cells were then exposed to […] bortezomib and cell number was examined 4 days later. The plot represents the average (+/−SEM) of four different hairpins targeting the indicated proteasome subunits and their relative cell number following bortezomib treatment. 19S subunits are depicted with orange bars, the control with a blue bar and 20S subunits with green bars. […] (FIG. 2C) The relative cell number of cells harboring a control shLacZ or each of 4 individual shRNAs targeting shPSMD2 was analyzed 4 days after addition of the indicated concentrations of bortezomib. (FIG. 2D) HepG2 cells stably expressing four different shRNAs targeting the PSMD2 subunit and a control shRNA (lacZ) were analyzed by western blot for the indicated proteins 24 hours with or without bortezomib treatment. […] Proteasome complex levels were detected by immunoblot analysis and 20S proteasome activity by measuring the hydrolysis of Suc-LLVY-AMC by substrate overlay assays. * p<0.05 **p<0.01. […]

K562 cells = test: K562 viability and cell proliferation (relative cell number count), incl. FDX1 KO cells; assay type: cell-based, human; conditions: FDX1-null cell line versus non-targeting control sgRNA
From the text: Despite its use in clinical trials on a limited number of malignancies, the elesclomol mechanism of action remains unclear. We therefore undertook a genetic approach to identify its direct target and to define cellular pathways that modulate the sensitivity of cancer cells to elesclomol-induced toxicity. […] We measured the relative abundance of each sgRNA in the compound-treated K562 cells at the beginning and end of the culture period. For each gene, we calculated its score as the mean log2 fold-change in abundance of all sgRNAs targeting the gene. […]
Viability and cell proliferation assays—Relative cell number count protocol—The viability of K562 cells was conducted by seeding cells at 250,000 cells/mL in 6-well plates of RPMI. […] Viable cell numbers were counted using countess (Invitrogen) every 2-3 days and cells were reseeded at 250,000 cells/mL in 6-well plates of RPMI to continue growth.
The viability of FDX1 KO K562 cells and AAVS1 KO and WT controls was examined by plating 100,000 cells/mL in 6-well cells in RPMI media (without glucose containing dialyzed serum) with either 10 mM glucose or 10 mM galactose. Viable cell numbers were counted every day using countess (Invitrogen).

SMILES	rate of protein degradation (T47D cells)	rate of protein synthesis (T47D cells)	20S proteasome function (20S proteasome)	effect of loss of FDX1 protein on sensitivity (K562 cells)
CC(C)C[C@H](NC(=O)[C@H](Cc1ccccc1)NC(=O)c1cnccn1)B(O)O [bortezomib]	sharply decreased	sharply decreased	nearly complete inactivation	–
CN(NC(=O)CC(=O)NN(C)C(=S)c1ccccc1)C(=S)c1ccccc1 [elesclomol]	–	–	–	confers relative resistance
